{"source": "patent US6074845A", "about": "(priority 1999, dated 2000)", "key": {"[1]": {"test_system": "insulin-stimulated glycogen synthesis", "details": "activation of sensory nerves; cited from earlier work"}, "[2]": {"test_system": "ATP-sensitive potassium channel", "details": "rabbit mesenteric resistance arteries and rat basilar artery; cited from earlier work"}, "[3]": {"biological_target": "T1, BECRLR (bovine calcitonin receptor-like receptor) (Bos taurus, UniProt A6QP74)", "T1 construct": "amplify the open reading frame of the novel bovine CRLR cDNA; expressed in transfected cells; also transient transfection", "T1 sequence (A6QP74 23-462)": "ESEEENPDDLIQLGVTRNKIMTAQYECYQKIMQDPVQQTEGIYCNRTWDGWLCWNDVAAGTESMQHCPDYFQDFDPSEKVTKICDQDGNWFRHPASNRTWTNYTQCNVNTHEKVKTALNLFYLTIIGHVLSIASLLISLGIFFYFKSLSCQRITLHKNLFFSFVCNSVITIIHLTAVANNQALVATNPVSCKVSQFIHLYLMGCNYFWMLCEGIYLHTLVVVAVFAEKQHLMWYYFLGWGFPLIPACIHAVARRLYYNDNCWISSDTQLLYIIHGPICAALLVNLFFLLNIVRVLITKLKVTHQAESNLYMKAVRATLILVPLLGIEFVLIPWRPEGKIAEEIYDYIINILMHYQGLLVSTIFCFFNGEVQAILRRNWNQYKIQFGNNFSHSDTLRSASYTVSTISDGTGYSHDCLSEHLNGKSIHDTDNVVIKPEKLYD", "T1 sequence (O60895 43-175 partner)": "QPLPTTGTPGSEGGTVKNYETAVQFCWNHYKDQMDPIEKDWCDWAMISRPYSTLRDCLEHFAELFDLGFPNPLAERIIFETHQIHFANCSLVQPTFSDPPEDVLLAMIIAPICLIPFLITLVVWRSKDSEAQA", "test": "Inhibition of ADM-activated adenylyl cyclase activity (antagonism) in BECRLR-293 membranes", "type": "biochemical", "details": "BECRLR #8", "experimental": "(§1) Cells from BECRLR-293 were scraped into ice-cold PBS and centrifuged for 10 min at 1000× g at 4° C. The pellet was resuspended in 10 mM Tris-HCl, pH 7.4, 10 mM Na-EDTA and homogenized using a Dounce ground glass homogenizer. The homogenate was centrifuged for 20 min at 12,000× g at 4° C. and the resultant membrane pellet was resuspended in 50 mM Tris-HCl, pH 7.4, 10 mM MgCl2 and recentrifuged. The final pellet was resuspended in 50 mM Tris-HCl, pH 7.4, 10 mM MgCl2 and assayed immediately.\n(§2) [^125 I] […] The specificity of [^125 I] rADM binding to BE-CRLR membranes was investigated by analyzing the displacement of this radioligand binding by ADM and related peptides."}, "[4]": {"biological_target": "T1, BECRLR (bovine calcitonin receptor-like receptor)", "test": "Competition binding, displacement of [125I] rADM from BECRLR membranes", "details": "BE-CRLR membranes; for IC50: [125I] rADM", "experimental": "as §1\n(§3) Saturation binding experiments were carried out using membranes prepared from BECRLR-293 cells pretreated in the absence or presence of ADM. The incubation mixture contained various concentrations of [^125 I] ADM (5 to 120 pM) and 40-60 μg of membrane protein in a final volume of 500 ul. Nonspecific binding was determined in the presence of 1 μM r ADM. After incubating for 30 min at 25° C., the reaction mixture was rapidly diluted with cold 0.9% NaCl and bound and free ligands were separated by filtration on glass fiber filters.\nas §2"}, "[5]": {"biological_target": "T1, BECRLR (bovine calcitonin receptor-like receptor)", "test": "Adenylyl cyclase activity (activation) in BECRLR-expressing HEK293 cells/membranes", "type": "biochemical", "set-up": "adenylyl cyclase activity stimulation over basal: dose or concentration left out as unconfirmed", "details": "for additive effect between CGRP and ADM on adenylyl cyclase: CGRP combined with ADM, BECRLR #8; for adenylyl cyclase activity stimulation over basal: HEK293 cells transiently transfected; for EC50 / activation of adenylyl cyclase activity over basal: stable clone BECRLR #8; for activation of adenylyl cyclase activity over basal: concentration-dependent", "text": "A bovine endothelial cell cDNA library was constructed using the k-Zap cDNA synthesis kit (Stratagene, La Jolla, Calif.) following the standard protocol. The human CGRP receptor c-DNA-coding sequence was used as a probe for the isolation of CRLR clones from an endothelial cell library. The probe was radiolabled with [α^32 P] ATP by the random priming method and used to screen approximately 1×10^6 plaque-forming units of the endothelial CRLR cDNA library. Nylon filters (Hybond ) containing plaque lifts were hybridized at 42° in 5× SSC (SSC is 150 mM NaCl and 15 mM sodium citrate), 5× Denhardt's solution, 0.1% SDS and 20% formamide followed by autography. Hybridizing clones (8) were plaque purified, and the pBluescript-containing insert was rescued from the purified×phage by in vivo excision using the Exassist/Solar system (Stratagene) and was sequenced in both strands by the dideoxynucleotide chain termination reaction. Two oligonucleotide primers were designed to amplify the open reading frame of the novel bovine CRLR cDNA. PCR amplification was carried out. A recombinant of the novel bovine CRLR was produced by transfection in HEK-293 cells. Transfection was achieved by LipofectAMINE procedure (Life Technologies, Gaithersburg, Md.). Stable cell lines expressing this receptor were selected with G418 and screened for CGRP and ADM-dependent activation of adenylyl cyclase.\nas §1\n(§4) Membrane-bound adenylyl cyclase activity was determined. Membranes [40-60 ug protein] were incubated in triplicate tubes in buffer containing 50 mM Tris-HCl, pH 7.4, 10 mM MgCl2, 1.2 mM ATP, 1.0 μCi [α^32P]ATP, 0.1 mM cAMP, 2.8 mM phosphoenolpyruvate and 5.2 μg/ml myokinase in a final volume of 100 μl for 20 min at 30° C. The reactions were stopped with 1 ml of a solution containing 0.28 mM cAMP, 0.33 mM ATP and 22,000 dpm of [^3 H]cAMP. [^32 P]cAMP was separated using sequential chromatography as the rate of conversion of [(α^32 P]ATP to [^32 P]cAMP on Dowex and alumina columns (33). Adenylyl cyclase activities were determined in the absence (basal) or presence of various concentrations of rat ADM or hαCGRP (1 pM to 1 μM). The effect of ADM (22-52), ADM (26-52) and hαCGRP(8-37), on ADM-mediatedactivation of adenylyl cyclase was also determined.\n(§5) HEK293 cells transiently transfected with this clone responded to CGRP and ADM […] by stimulating adenylyl cyclase activity (60-80% over basal). This clone has been stably expressed in HEK293 cells using the LipofectAMINE procedure and analyzed for CGRP and ADM-mediated adenylyl cyclase activity. One of the positive clones (BECRLR #8) was fully characterized. […] To investigate further the functional results described in this study, a binding study using [^125 I]rADM and [^125 I]CGRP was performed to identify the presence of binding sites for both peptides in BE-CRLR (#8) cell membranes. [^125 I] CGRP binding was very little and the affinity or number of binding sites was difficult to determine. […] The specificity of [^125 I] rADM binding to BE-CRLR membranes was investigated by analyzing the displacement of this radioligand binding by ADM and related peptides. Human and rat ADM displaced [^125 I] rADM binding with high affinity (IC50 values 2-4 nM)."}, "[6]": {"test_system": "vector transfected HEK293 cell membranes", "test": "Adenylyl cyclase activity in vector transfected HEK293 cell membranes (control)", "type": "biochemical, human", "experimental": "as §4\nHEK293 cells transiently transfected with this clone responded to CGRP and ADM […] by stimulating adenylyl cyclase activity (60-80% over basal). This clone has been stably expressed in HEK293 cells using the LipofectAMINE procedure and analyzed for CGRP and ADM-mediated adenylyl cyclase activity. One of the positive clones (BECRLR #8) was fully characterized. […]"}, "[7]": {"details": "infusion into humans and a variety of other species; cited from earlier work"}, "[8]": {"test_system": "insulin's effects on glucose metabolism", "details": "cited from earlier work"}, "[9]": {"test_system": "CRLR coexpressed with RAMP 1", "details": "CRLR with RAMP 1; cited from earlier work"}, "[10]": {"biological_target": "T1, BECRLR (bovine calcitonin receptor-like receptor)", "test": "Saturation / specific radioligand binding to BECRLR-293 membranes", "experimental": "as §1\nas §3, with “filters. In competition binding studies, the membranes were incubated with increasing concentrations of r ADM or CGRP (1 pM-1 uM) and 150 pM of [^125 I] r ADM for 30 min. at 25° C.” for “filters.”\nas §5, with “Human and rat ADM displaced [^125 I] rADM binding with high affinity (IC50 values 2-4 nM).” left out"}, "rat tissues": {"test_system": "rat tissues", "details": "[125I] rat ADM; cited from earlier work"}, "[11]": {"details": "injected intravenously into rats; cited from earlier work"}, "[12]": {"test_system": "vascular SMC, and bovine EC", "details": "cited from earlier work"}, "[13]": {"test_system": "rat vascular SMC and cardiomyocytes", "details": "cited from earlier work"}, "NO-cGMP system": {"test_system": "NO-cGMP system", "details": "kidney, vascular EC, rabbit ventricular myocytes; cited from earlier work"}, "[14]": {"test_system": "insulin secretion and blood glucose metabolism", "details": "cited from earlier work"}, "[15]": {"test_system": "CRLR co-expressed with RAMP2", "details": "cited from earlier work"}}, "note": "Ends that are not written are not given here."}
{"compound": "COc1cc(CNC(=O)CCCC/C=C/C(C)C)ccc1O", "note": "[capsaicin]", "values": [{"measurement": "insulin-stimulated glycogen synthesis", "setting": "[1]", "value": "inhibits insulin-stimulated glycogen synthesis"}]}
{"compound": "COc1ccc(Cl)cc1C(=O)NCCc1ccc(S(=O)(=O)NC(=O)NC2CCCCC2)cc1", "note": "[glibenclamide]", "values": [{"measurement": "inhibition of CGRP actions", "setting": "[2]", "value": "CGRP actions are inhibited by glibenclamide"}]}
{"compound": "C=C(C)[C@]12C[C@@H](C)[C@@]34O[C@](Cc5ccccc5)(O[C@@H]1[C@@H]3C=C(COC(=O)Cc1ccc(O)c(OC)c1)C[C@]1(O)C(=O)C(C)=C[C@@H]41)O2", "note": "[resiniferatoxin]", "values": [{"measurement": "insulin-stimulated glycogen synthesis", "setting": "[1]", "value": "inhibits insulin-stimulated glycogen synthesis"}]}
{"compound": "ADM(22-52): ADM receptor antagonist, fragment 22-52 of adrenomedullin", "values": [{"measurement": "IC50", "setting": "[3]", "value": 110, "unit": "nM"}, {"measurement": "displacement potency relative to ADM (fold less potent than ADM)", "setting": "[4]; [125I] rADM displacement", "value": "approximately 15 fold"}]}
{"compound": "ADM(26-52): ADM receptor antagonist, fragment 26-52 of adrenomedullin (LAHQIYQFTDKDKDNVAPRSKISPQGY; ends and bridges not checked; UniProt P35318 120-146, looked up, fragment)", "values": [{"measurement": "IC50", "setting": "[3]", "value": "> 10000", "unit": "nM"}]}
{"compound": "Calcitonin gene-related peptide [CGRP]", "values": [{"measurement": "additive effect between CGRP and ADM on adenylyl cyclase", "setting": "[5]", "value": "no additive effect"}, {"measurement": "adenylyl cyclase activity stimulation over basal", "setting": "[5]", "value": "60-80 % over basal"}, {"measurement": "EC50", "setting": "[5]", "value": 2.8, "unit": "nM"}, {"measurement": "activation of adenylyl cyclase activity over basal", "setting": "[5]", "value": "~ 300 % over basal"}, {"measurement": "activation of adenylyl cyclase in vector transfected membranes", "setting": "[6]", "value": "did not respond"}, {"measurement": "displacement of [125I] rADM binding, potency in words", "setting": "[4]; [125I] rADM displacement", "value": "less potent"}, {"measurement": "vasodilation, blood flow, blood pressure, heart rate", "setting": "[7]", "value": "vasodilation, increased regional blood flow, hypotension and tachycardia"}, {"measurement": "glucose infusion rate needed to maintain plasma euglycemia", "setting": "[8]; glucose clamp in rats, constant insulin infusion rate", "value": "rapid and sustained reduction in the glucose infusion rate"}, {"measurement": "insulin inhibition of hepatic glucose production", "setting": "[8]; rat, in vivo", "value": "effective in blocking insulin inhibition of hepatic glucose production"}, {"measurement": "response of expressed receptor", "setting": "[9]", "value": "responds to CGRP"}]}
{"compound": "Human adrenomedullin [Human ADM]", "values": [{"measurement": "IC50", "setting": "[4]", "value": "2 to 4", "unit": "nM"}]}
{"compound": "[^125 I]rADM: radioiodinated rat adrenomedullin, radioligand (YRQSMNQGSRSTGCRFGTCTMQKLAHQIYQFTDKDKDGMAPRNKISPQGY; ends and bridges not checked; also: radioiodinated (125I), position not given here; UniProt P43145 94-143, looked up)", "values": [{"measurement": "Kd", "setting": "[10]; Scatchard transformation, single class of high affinity binding site, read-out: dissociation constant (Kd)", "value": 0.25, "unit": "nM"}, {"measurement": "specific binding as percent of total binding", "setting": "[10]; [125I]rADM, BE-CRLR (#8) cell membranes", "value": "80-90 % of the total binding"}, {"measurement": "density of ADM binding sites among rat tissues", "setting": "rat tissues", "value": "lung had the highest density of ADM binding sites"}]}
{"compound": "adrenomedullin (YRQSMNQGSRSTGCRFGTCTMQKLAHQIYQFTDKDKDGMAPRNKISPQGY; ends and bridges not checked; cysteine pairing not given here; UniProt P43145 94-143, looked up) [ADM, vasodilating peptide]", "values": [{"measurement": "additive effect between CGRP and ADM on adenylyl cyclase", "setting": "[5]", "value": "no additive effect"}, {"measurement": "adenylyl cyclase activity stimulation over basal", "setting": "[5]", "value": "60-80 % over basal"}, {"measurement": "EC50", "setting": "[5]", "value": 4.3, "unit": "nM"}, {"measurement": "activation of adenylyl cyclase activity over basal", "setting": "[5]", "value": "~ 300 % over basal"}, {"measurement": "activation of adenylyl cyclase in vector transfected membranes", "setting": "[6]", "value": "did not respond"}, {"measurement": "affinity of BECRLR, overall conclusion", "setting": "[10]; based on radioligand binding and functional assays", "value": "higher affinity to ADM"}, {"measurement": "hypotension", "setting": "[11]", "value": "strong, long-lasting hypotension"}, {"measurement": "intracellular Ca++", "setting": "[12]; through the activation of phospholipase C", "value": "induces a rise in intracellular Ca^++"}, {"measurement": "accumulation of intracellular cAMP", "setting": "[12]; vascular SMC, and bovine EC", "value": "stimulates the accumulation of intracellular cAMP"}, {"measurement": "c-fos gene expression and AP-I DNA binding activity", "setting": "[13]", "value": "induces rapid and transient c-fos gene expression and AP-I DNA binding activity"}, {"measurement": "NO-cGMP system", "setting": "NO-cGMP system", "value": "activated the NO-cGMP system"}, {"measurement": "insulin secretion and blood glucose metabolism", "setting": "[14]", "value": "down-regulate insulin secretion and blood glucose metabolism"}, {"measurement": "response of expressed receptor", "setting": "[15]", "value": "responds to ADM"}]}
{"compound": "rat ADM: rat adrenomedullin (YRQSMNQGSRSTGCRFGTCTMQKLAHQIYQFTDKDKDGMAPRNKISPQGY; ends and bridges not checked; cysteine pairing not given here; UniProt P43145 94-143, looked up)", "values": [{"measurement": "IC50", "setting": "[4]", "value": "2 to 4", "unit": "nM"}]}
